Test results reported in US11634418B2, “Amino acid compounds and methods of use” (Pliant Therapeutics, Inc., priority 2016, dated 2023).

Molecular target: recombinant human integrin αvβ6 (Homo sapiens (Human), UniProt P06756+P18564)
Assay: Solid Phase Integrin αvβ6 Binding Assay
Settings: inhibition of recombinant TGFβ1 LAP binding to coated integrin; IC50 given as range
Protocol: Microplates were coated with recombinant human integrin αvβ6 (2 ug/ml) in PBS (100 ul/well 25° C. overnight). The coating solution was removed, washed with wash buffer (0.05% Tween 20; 0.5 mM MnCl2; in 1×TBS). Plate was blocked with 200 ul/well of Block Buffer (1% BSA; 5% sucrose; 0.5 mM MnCl2; in 1×TBS) at 37° C. for 2 h. Dilutions of testing compounds and recombinant TGFβ1 LAP (0.67 ug/ml) in binding buffer (0.05% BSA; 2.5% sucrose; 0.5 mM MnCl2; in 1×TBS) were added. The plate was incubated for 2 hours at 25° C., washed, and incubated for 1 hour with Biotin-Anti-hLAP. Bound antibody was detected by peroxidase-conjugated streptavidin. The IC50 values for testing compounds were calculated by a four-parameter logistic regression.

Sequence of recombinant human integrin αvβ6 (P06756 31-992): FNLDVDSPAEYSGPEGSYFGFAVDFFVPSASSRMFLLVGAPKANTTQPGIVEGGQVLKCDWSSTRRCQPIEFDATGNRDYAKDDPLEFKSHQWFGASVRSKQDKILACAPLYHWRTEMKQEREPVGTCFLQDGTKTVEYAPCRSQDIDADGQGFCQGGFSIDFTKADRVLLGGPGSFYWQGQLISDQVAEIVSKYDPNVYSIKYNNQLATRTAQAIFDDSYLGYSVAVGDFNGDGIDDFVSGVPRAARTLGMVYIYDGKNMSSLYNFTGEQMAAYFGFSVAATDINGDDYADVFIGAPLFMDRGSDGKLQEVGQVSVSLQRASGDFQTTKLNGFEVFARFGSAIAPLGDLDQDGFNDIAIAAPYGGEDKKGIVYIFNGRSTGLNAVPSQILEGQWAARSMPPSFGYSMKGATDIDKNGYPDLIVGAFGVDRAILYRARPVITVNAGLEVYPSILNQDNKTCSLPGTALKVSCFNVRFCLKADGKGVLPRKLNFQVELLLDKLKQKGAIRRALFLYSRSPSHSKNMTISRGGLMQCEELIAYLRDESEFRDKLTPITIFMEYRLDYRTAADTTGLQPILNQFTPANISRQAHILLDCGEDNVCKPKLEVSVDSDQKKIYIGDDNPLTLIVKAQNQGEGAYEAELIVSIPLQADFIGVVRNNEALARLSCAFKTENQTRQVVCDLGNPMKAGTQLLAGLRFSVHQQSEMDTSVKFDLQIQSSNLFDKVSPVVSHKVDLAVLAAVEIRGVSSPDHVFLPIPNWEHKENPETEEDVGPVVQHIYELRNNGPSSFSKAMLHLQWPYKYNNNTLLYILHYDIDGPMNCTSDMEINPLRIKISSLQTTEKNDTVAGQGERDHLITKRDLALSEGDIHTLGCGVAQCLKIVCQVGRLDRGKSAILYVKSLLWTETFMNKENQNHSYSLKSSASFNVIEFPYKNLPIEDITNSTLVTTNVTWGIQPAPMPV
Sequence of recombinant human integrin αvβ6 (P18564 22-707): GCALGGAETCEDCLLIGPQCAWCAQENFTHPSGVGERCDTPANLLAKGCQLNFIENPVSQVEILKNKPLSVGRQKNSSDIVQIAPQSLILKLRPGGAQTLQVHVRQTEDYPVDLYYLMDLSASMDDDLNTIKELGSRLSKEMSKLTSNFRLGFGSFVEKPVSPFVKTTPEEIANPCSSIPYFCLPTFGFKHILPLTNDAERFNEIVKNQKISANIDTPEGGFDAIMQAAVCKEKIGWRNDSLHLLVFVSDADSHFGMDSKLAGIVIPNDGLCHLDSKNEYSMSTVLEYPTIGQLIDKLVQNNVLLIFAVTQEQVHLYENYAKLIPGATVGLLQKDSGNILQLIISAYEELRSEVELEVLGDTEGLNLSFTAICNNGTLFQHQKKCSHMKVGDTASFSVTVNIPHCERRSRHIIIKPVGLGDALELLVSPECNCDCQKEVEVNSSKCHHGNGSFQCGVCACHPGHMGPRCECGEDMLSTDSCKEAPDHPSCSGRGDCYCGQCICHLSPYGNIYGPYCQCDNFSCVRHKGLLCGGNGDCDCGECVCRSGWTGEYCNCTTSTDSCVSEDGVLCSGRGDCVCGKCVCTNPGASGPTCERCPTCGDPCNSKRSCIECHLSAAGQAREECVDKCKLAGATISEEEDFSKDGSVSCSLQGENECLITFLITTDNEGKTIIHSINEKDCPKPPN

SMILES	IC50 [nM]
O=C(N[C@@H](CCN1CCC(NCc2ccc3c(n2)NCCC3)CC1)C(=O)O)C1CCC(F)(F)CC1 [Compound 34]	> 1000
Cc1cc(C)n(-c2cccc(C(=O)N[C@@H](CCN3CC(CCc4ccc5c(n4)NCCC5)CC(F)(F)C3)C(=O)O)c2)n1 (stereo partly shown) [Compound 42]	250 to 4000
Cn1ncc2ccc(C(=O)N[C@@H](CCN3CCC[C@@](F)(CCc4ccc5c(n4)NCCC5)C3)C(=O)O)cc21 [Compound 106]	50
O=C(N[C@@H](CCN1CCC[C@@](F)(CCc2ccc3c(n2)NCCC3)C1)C(=O)O)C1CCC(F)(F)CC1 [Compound 107]	50
CC(C)(O)CN1CCCC1C(=O)N[C@@H](CCN1CC(OCCc2ccc3c(n2)NCCC3)C1)C(=O)O (stereo partly shown) [Compound 134]	250 to 1000
NCCCc1ccc(CCC2CC3CCC2N3CC[C@H](NC(=O)c2cc(F)cc(C(F)(F)F)c2)C(=O)O)nc1 (stereo partly shown) [Compound 141]	< 50
O=C(O)[C@H](CCN1CC(CCc2ccc3c(n2)NCCC3)C1)NC(=O)[C@@H]1CCCN1Cc1ccccc1 [Compound 143]	> 1000
